The text below walks through data of US9428456B2, “1-[m-carboxamido(hetero)aryl-methyl]-heterocyclyl-carboxamide derivatives” (Actelion Pharmaceuticals Ltd., priority 2012, dated 2016).

Chain of CXCR7 (P25106 whole entry, the tested form may be a part): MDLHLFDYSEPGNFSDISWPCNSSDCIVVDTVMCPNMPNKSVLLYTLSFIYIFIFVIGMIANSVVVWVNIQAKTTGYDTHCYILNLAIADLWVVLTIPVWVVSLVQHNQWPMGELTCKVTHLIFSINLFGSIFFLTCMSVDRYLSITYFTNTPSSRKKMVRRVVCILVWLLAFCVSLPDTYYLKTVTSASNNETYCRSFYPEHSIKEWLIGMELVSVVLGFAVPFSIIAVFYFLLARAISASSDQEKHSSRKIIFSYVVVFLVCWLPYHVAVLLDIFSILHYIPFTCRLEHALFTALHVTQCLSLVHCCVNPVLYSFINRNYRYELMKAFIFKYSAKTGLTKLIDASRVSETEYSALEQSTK
Chain of CXCR7 (P32121 whole entry partner, the tested form may be a part): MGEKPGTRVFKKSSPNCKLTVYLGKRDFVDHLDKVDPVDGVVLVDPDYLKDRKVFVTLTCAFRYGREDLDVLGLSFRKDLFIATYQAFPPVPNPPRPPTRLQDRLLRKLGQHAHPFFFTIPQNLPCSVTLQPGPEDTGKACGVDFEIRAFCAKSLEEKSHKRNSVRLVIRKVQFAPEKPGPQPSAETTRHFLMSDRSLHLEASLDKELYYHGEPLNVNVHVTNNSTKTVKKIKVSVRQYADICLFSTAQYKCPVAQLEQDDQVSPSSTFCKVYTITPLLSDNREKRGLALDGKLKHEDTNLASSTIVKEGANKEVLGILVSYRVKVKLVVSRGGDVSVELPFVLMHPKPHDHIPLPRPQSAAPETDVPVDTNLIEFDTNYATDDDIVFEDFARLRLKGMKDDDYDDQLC

The target of this experiment is CXCR7 (Homo sapiens (Human), UniProt P25106). Kind of experiment: PathHunter CHO-K1 CXCR7 b-arrestin assay (agonistic activity). The note with it: PathHunter CHO-K1 CXCR7 b-arrestin cell line. Type of experiment: cell-based. In outline:
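CHO-K1 cells co-expressing ProLink-tagged CXCR7 and EA-fused β-arrestin 2 (enzyme fragment complementation); compounds added in HBSS/20 mM HEPES/0.2% BSA after 3–4 h in OPTIMEM, 90 min at 37 °C. Chemiluminescent β-gal signal read after 1 h detection at room temperature; EC50 reported as geometric mean of several measurements.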
With `O=C(Nc1cccc(CN2CCC(C(=O)NC3CCCCC3)CC2)c1)c1ccno1` [Example 1.049], the EC50 amounted to 7 nM. That is a single-digit nanomolar value.
Regarding `CCc1ccc(CN2CCC(C(=O)NC(C)(C)C)CC2)cc1NC(=O)c1ccc(F)cc1` [Example 1.328], the EC50 was found to be 8 nM. The EC50 values of the last two compounds are within 1.5-fold of each other.
The same measure for `CC(c1cccc(NC(=O)c2ccc(F)cc2)c1)N1CCC(C(=O)NC2CCCCC2)CC1` (stereo not drawn) [Example 1.166]: 10 nM.
The same measure for `CCc1ccc(C(=O)Nc2cccc(CN3CCC(C(=O)NC4CCCCC4)CC3)c2)cc1` [Example 1.097]: 5 nM.
The same measure for `COc1ccc(NC(=O)c2cncc(C)c2)cc1CN1CCC(C(=O)NC(C)(C)C)CC1` [Example 1.297]: 98 nM; for `O=C(Cc1ccc2ccccc2c1)Nc1cccc(CN2CCC(C(=O)NC3CCCCC3)CC2)c1` [Example 1.015]: 78 nM; for `C[C@H]1C[C@@H](C(=O)NC2CCCCC2)CCN1Cc1cccc(NC(=O)c2cccc(C(F)(F)F)n2)c1` [Example 2.105, 6-Trifluoromethyl-pyridine-2-carboxylic acid [3-((2S,4S)-4-cyclohexylcarbamoyl-2-methyl-piperidin-1-ylmethyl)-phenyl]-amide or 6-trifluoromethyl-pyridine-2-carboxylic acid [3-((2R,4R)-4-cyclohexylcarbamoyl-2-methyl-piperidin-1-ylmethyl)-phenyl]-amide]: 3 nM.
`CC(c1cccc(NC(=O)c2cc(Cl)ccn2)c1)N1CCC(C(=O)NC2CCCCC2)CC1` (racemic) [Example 1.180] registered an EC50 of 51 nM.
Next, `Cc1cncc(C(=O)Nc2ccnc(CN3CCC(C(=O)NC4CCCCC4)CC3)n2)c1` [Example 1.285]: 199 nM; `CCc1ccc(NC(=O)c2ccc(F)cc2)cc1CN1CCC(C(=O)NC(C)(C)C)CC1` [Example 1.334]: 17 nM; `COc1cc(CN2CCC(C(=O)NC(C)(C)C)CC2)cc(NC(=O)c2cccc(C(F)(F)F)n2)c1` [Example 1.325]: 262 nM.
Compound `O=C(Nc1nc(CN2CCC(C(=O)NC3CCCC3)CC2)cs1)c1ccc(Cl)cc1` [Example 1.293] registered an EC50 of 81 nM. Compared with the last compound, the EC50 is about 3.2-fold lower.
The same measure for `O=C(Nc1cccc(CN2CCC(C(=O)NC3CCCCC3)C2)c1)c1cccc(C(F)(F)F)n1` (racemic) [Example 2.099, rac-6-Trifluoromethyl-pyridine-2-carboxylic acid [3-(3-cyclohexylcarbamoyl-pyrrolidin-1-ylmethyl)-phenyl]-amide]: 60 nM; for `Cc1cncc(C(=O)Nc2cccc(C(C)N3CCC(C(=O)NC4CCCCC4)CC3)c2)c1` (racemic) [Example 1.172]: 28 nM.
Next, `CC(C)c1ccc(C(=O)Nc2cccc(CN3CCC(C(=O)NC4CCCCC4)CC3)c2)cc1` [Example 1.098]: 12 nM; `Cc1c(CN2CCC(C(=O)NC(C)(C)C)CC2)cccc1NC(=O)c1ccc(F)cc1` [Example 1.313]: 19 nM; `Cc1cc(C(=O)Nc2cccc(CN3CCC(C(=O)NC4CCCCC4)CC3)c2)ccc1F` [Example 1.118]: 3 nM.
The same measure for `O=C(Nc1cccc(CN2CCC(C(=O)NC3CC3)CC2)c1)c1cncc(F)c1` [Example 1.204]: 47 nM.
Turning to `Cc1nc(C)c(CC(=O)Nc2cccc(CN3CCC(C(=O)NC(C)(C)C)CC3)c2)s1` [Example 1.262], the EC50 was 120 nM.
Next, `O=C(Nc1cccc(CN2CCC(C(=O)NC3CCCCC3)CC2)c1)c1ccc(C(F)(F)F)cc1F` [Example 1.134]: 8 nM; `COc1cc(CN2CCC(C(=O)NC(C)(C)C)CC2)cc(NC(=O)c2ccc(F)cc2)c1` [Example 1.280]: 409 nM.
Next, `O=C(Nc1cccc(CN2CCC(C(=O)NC3CCCC3)CC2)c1)c1cccnc1C(F)(F)F` [Example 1.214]: 109 nM.
The same measure for `CC(C)(C)NC(=O)C1CCN(Cc2cccc(NC(=O)c3cccnc3C(F)(F)F)c2)CC1` [Example 1.231]: 99 nM.
`O=C(Nc1cccc(CN2CCC(C(=O)NC3CCCC3)CC2)c1)c1cccc(C(F)(F)F)n1` [Example 1.208] had an EC50 of 0.6 nM.
Next, `CCC(c1cccc(NC(=O)c2cccc(C(F)(F)F)n2)c1)N1CCC(C(=O)NC2CCCCC2)CC1` (racemic) [Example 1.308]: 87 nM; `O=C(Nc1cccc(CN2CCC(C(=O)NC3CCCCC3)CC2)c1)c1cnc(Cl)c(Cl)c1` [Example 1.090]: 6 nM.
The same measure for `CN1CCN(c2ccc(C(=O)Nc3cccc(CN4CCC(C(=O)NC5CCCCC5)CC4)c3)cn2)CC1` [Example 1.072]: 471 nM; for `CCC(C)(C)NC(=O)C1CCN(Cc2cccc(NC(=O)c3ccc(C(F)(F)F)c[n+]3[O-])c2)CC1` [Example 1.347]: 16 nM.
`CCC(C)(C)NC(=O)C1CCN(Cc2cccc(NC(=O)c3ccc(F)c[n+]3[O-])c2)CC1` [Example 4.021, 5-Fluoro-1-oxy-pyridine-2-carboxylic acid {3-[4-(1,1-dimethyl-propylcarbamoyl)-piperidin-1-ylmethyl]-phenyl}amide] came in with an EC50 of 2 nM.
Next, `CC(c1cccc(NC(=O)c2ccc(C(F)(F)F)nc2)c1)N1CCC(C(=O)NC2CCCCC2)CC1` (racemic) [Example 1.183]: 98 nM; `CC(c1cccc(NC(=O)c2ccccn2)c1)N1CCC(C(=O)NC2CCCCC2)CC1` (racemic) [Example 1.169]: 12 nM.
The same measure for `CC(C)(C)NC(=O)C1CCN(Cc2cccc(NC(=O)c3cnc4ccccc4c3)c2)CC1` [Example 1.233]: 2 nM; for `O=C(Nc1cccc(CN2CCC(C(=O)NC3CCCCC3)CC2)c1)c1cc(F)cc(Cl)c1` [Example 1.131]: 4 nM.
`CC(C)(C)NC(=O)C1CCN(Cc2cccc(NC(=O)c3cncc(C4CC4)c3)c2)CC1` [Example 1.240]: a half-maximal response (EC50) required 3 nM.
The same measure for `O=C(Nc1cccc(CN2CCC(C(=O)NC3CCCCC3)CC2)c1)C1CC1` [Example 1.149]: 81 nM; for `CCC(C)(C)NC(=O)C1CCN(Cc2cccc(NC(=O)c3ccc(Cl)cn3)c2)CC1` [Example 1.338]: 0.8 nM; for `Cc1cc(C(=O)Nc2cccc(CN3CCC(C(=O)NC4CCCCC4)CC3)c2)ccn1` [Example 1.055]: 10 nM.
Next, `CCN(CC)c1ccc(C(=O)Nc2cccc(CN3CCC(C(=O)NC4CCCCC4)CC3)c2)cn1` [Example 1.071]: 182 nM; `CC(c1cccc(NC(=O)Cc2cccc(C(F)(F)F)c2)c1)N1CCC(C(=O)NC2CCCCC2)CC1` (racemic) [Example 1.173]: 26 nM; `Cc1ccnc(C(=O)Nc2cccc(CN3CCC(C(=O)NC4CCCCC4)CC3)c2)c1` [Example 1.082]: 4 nM.
The same measure for `CC(C)C(=O)Nc1cccc(CN2CCC(C(=O)NC3CCCCC3)CC2)c1` [Example 1.016]: 121 nM; for `O=C(Nc1cccc(CN2CCC(C(=O)NC3CCCCC3)CC2)c1)c1cccc[n+]1[O-]` [Example 1.080]: 14 nM.
Consider `COC(=O)c1cncc(C(=O)Nc2cccc(CN3CCC(C(=O)NC4CCCCC4)CC3)c2)c1` [Example 1.350], for which the EC50 amounted to 29 nM. Against the preceding compound, the EC50 is about 2.1-fold higher.
Next, `CCc1ccc(CN2CCC(C(=O)NC(C)(C)C)CC2)cc1NC(=O)c1cncc(C)c1` [Example 1.327]: 28 nM.
Compound `O=C(Nc1cccc(CN2CCC(C(=O)NC3CCCCC3)CC2)c1)c1ccncc1Cl` [Example 1.074] displayed an EC50 of 60 nM.
For the compound `Cc1ccnc(C(=O)Nc2cccc(C(C)N3CCC(C(=O)NC4CCCCC4)CC3)c2)c1` (racemic) [Example 1.191], it took 64 nM to reach a half-maximal effect (EC50).
The same measure for `CC(C)(C)NC(=O)C1CCN(Cc2cccc(NC(=O)C(O)c3ccccc3Cl)c2)CC1` (racemic) [Example 1.270]: 6 nM; for `COc1c(CN2CCC(C(=O)NC(C)(C)C)CC2)cccc1NC(=O)c1cccc(C(F)(F)F)n1` [Example 1.319]: 45 nM; for `O=C(Nc1cc(CN2CCC(C(=O)NC3CCCCC3)CC2)ccc1Cl)c1ccc(Cl)cc1` [Example 1.160]: 5 nM.
Next, “1-[3-(4-Chloro-benzoylamino)-benzyl]-piperidine-4-carboxylic acid (1-cyano-cyclopropyl)-amide [Example 2.036]”: 15 nM.
Next, `O=C(Nc1cccc(CN2CCC(C(=O)NC3CCCCC3)CC2)c1)c1cncc2ccccc12` [Example 1.022]: 97 nM.
